Data from patent publication US10864159B2, “Method and composition for treating ocular hypertension and glaucoma” (Santen Pharmaceutical Co., Ltd., priority 2008, dated 2020).

Assay: Absorption of preservative-free tafluprost to low density polyethylene containers, remaining concentration by HPLC
Format: physicochemical
Conditions: LDPE unit dose container, 20 weeks at 5° C., 25° C. and 40° C.
Method: The effect of nonionic surfactant on the absorption of preservative-free tafluprost to low density polyethylene containers was studied for 20 weeks at 5° C., 25° C. and 40° C. Three different polysorbate 80 (Tween 80) concentrations, namely 0.05%, 0.075% and 0.1% were used. The composition of the preservative-free aqueous tafluprost formulation except polysorbate 80 was 0.0015% tafluprost, 2.25% glycerol, 0.2% sodium dihydrogen phosphate dihydrate, 0.05% disodium edetate and sodium hydroxide and/or hydrochloric acid to adjust the pH to 5.0-6.7. 0.3 ml of the composition prepared above was filled in the body part of the unit dose container (LDPE) and sealed by heating with the upper part of the container (LDPE). The inner volume of the unit dose container was ca. 1 ml. The container was packaged into paper coated aluminium-polyethylene foil and stored in refrigerator or incubator. The remaining concentration of tafluprost was measured by HPLC.

- absorption of tafluprost to polyethylene (polysorbate 80 0.05 to 0.1%): inhibits the absorption of tafluprost
SMILES: CC(C)OC(=O)CCC/C=C\C[C@@H]1[C@@H](/C=C/C(F)(F)COc2ccccc2)[C@H](O)C[C@@H]1O [tafluprost]
- absorption of tafluprost to polyethylene (polysorbate 80 0.075 to 0.1%): good inhibition effect of absorption of tafluprost
